This note sets out measurements from the supplement of paper PMC11061612.

Holding throughout (assay): Bliss excess, mean over the matrix (fraction); higher = more synergy
Test [1] concerns 786-0 (Kidney Carcinoma). Summed up: (§1)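 Bliss excess equals the observed combination effect minus the expected value EA + EB − EA·EB, where EA and EB are the effects of each agent alone. Combination Emax is the second-highest inhibition within the matrix. Inhibition was scaled from CellTiter-Glo 2.0 luminescence, with 0 set by vehicle wells and 1 by blank wells, after 72 hours of two-drug dosing of cells plated in 1536-well plates.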

For test [2], the system named is BALL-1 (B-Lymphoblastic Leukemia). Summed up:
as §1

Test [3] relates to Becker (Low Grade Glioma). A digest of the protocol: as §1
Test [4] relates to CHL-1 (Melanoma). A digest of the protocol:
as §1

Test [5] deals with CML-T1 (Chronic Myelogenous Leukemia). Summed up: as §1
Test [6] concerns COLO-684 (Endometrial Carcinoma). A digest of the protocol:
as §1

In test [7] the test system is Calu-6 (Non-Small Cell Lung Carcinoma). A digest of the protocol:
as §1

In test [8] the test system is ES-2 (Ovarian Carcinoma). Summed up:
as §1

The test system of test [9] is FLO-1 (Esophageal Adenocarcinoma). Summed up: as §1
The subject of test [10] is HTC-C3 (Thyroid Gland Carcinoma). Summed up:
as §1

Test [11] concerns LAMA-84 (Chronic Myelogenous Leukemia). Summed up:
as §1

For test [12], the system named is LOUCY (T-Lymphoblastic Leukemia). Summed up:
as §1

Test [13] deals with NCI-H1563 (Lung Adenocarcinoma). A digest of the protocol:
as §1

Test [14] has as its system NCI-H1623 (Lung Adenocarcinoma). A digest of the protocol:
as §1

Test [15] relates to NCI-H196 (Small Cell Lung Carcinoma). Summed up: as §1
Test [16] concerns NCI-H810 (Non-Small Cell Lung Carcinoma). A digest of the protocol:
as §1

For test [17], the system named is PC-14 (Lung Adenocarcinoma). A digest of the protocol: as §1
The subject of test [18] is RERF-LC-KJ (Lung Adenocarcinoma). A digest of the protocol: as §1
The subject of test [19] is RL95-2 (Endometrial Carcinoma). Summed up: as §1
Test [20] relates to SW684 (Other Solid Carcinomas). A digest of the protocol:
as §1

Molecules are shown by their SMILES.

On to `Cc1cc2ncnn2cc1Nc1ncc2c(n1)n(C1CCOCC1)c(=O)n2C` [AZD7648] + C=CCn1c(=O)c2cnc(Nc3ccc(N4CCN(C)CC4)cc3)nc2n1-c1cccc(C(C)(C)O)n1 [AZD1775] (first compound max 10 µM, partner max 1 µM), for which the Bliss excess in [1] was 0.0502; in test [2] it was -0.0169; in test [3] it was -0.0269; in test [4], 0.014; in test [5], 0.0112; in test [6], -0.0713. In addition, the Bliss excess was -0.0282 in test [7]; 0.0248 in [8]; -0.023 in [9]; 0.0255 in [10]; 0.046 in test [11]; 0.0464 in test [12]. Besides, the Bliss excess in test [13] was -0.0041; in [14], 0.0376; in test [15], -0.0249; in test [16], -0.0103; in [17], -0.025; in test [18], 0.0509. In addition, the Bliss excess in test [19] was -0.0629; in test [20], -0.017.
With `COc1nnc2ccc(N3CCC(c4ccc(OCCN5CCN(C)C(=O)[C@H]5C)cc4)CC3)nn12` [AZD5153] + Cc1c2c(nn1C)CSCc1cc(n(C)n1)CSc1cc(c3ccccc3c1)OCCCc1c(C(=O)O)n(C)c3c-2c(Cl)ccc13 [AZD5991] (first compound max 1 µM, 7x7, partner max 1 µM), the Bliss excess in [1] is -0.0166; in [2], -0.0409; in test [3], -0.0815; in test [4], 0.0613; in [5], 0.0065; in test [6] it was -0.0106. The Bliss excess is -0.131 in [7]; -0.0534 in test [8]; -0.0352 in test [9]; -0.0441 in [10]; 0.005 in test [11]; 0.0187 in test [12]. Besides, the Bliss excess in test [13] is 0.0341; in test [14], 0.049; in test [15], 0.0074; in test [16], 0.0448; in test [17] it was -0.0145; in [18], 0.006. Moreover, the Bliss excess in test [19] is -0.0414; in [20] it was -0.108.
As for `COc1cccc(OCCCN)c1-c1cc(Nc2cnc(C#N)cn2)n[nH]1` [Prexasertib] + O=C(c1cc(Cc2n[nH]c(=O)c3ccccc23)ccc1F)N1CCN(C(=O)C2CC2)CC1 [Olaparib] (first compound max 1 µM, 7x7, partner max 10 µM), the Bliss excess in test [1] is -0.0427; in [2], -0.0145; in [3], -0.0257; in test [4] it was -0.051; in test [5] it was -0.03; in test [6], -0.128. Besides, the Bliss excess in [7] was -0.0701; in [8], -0.102; in [9], -0.0721; in [10], -0.0615; in test [11], -0.0307; in test [12], -0.0422. The Bliss excess in [13] is -0.037; in test [14], -0.0777; in test [15], -0.0641; in test [16], -0.0082; in test [17], -0.0478; in test [18], -0.0597. For the same compound, the Bliss excess in test [19] is -0.0343; in [20], -0.0742.
Take `COc1cccc(OCCCN)c1-c1cc(Nc2cnc(C#N)cn2)n[nH]1` [Prexasertib] + CN(C)CCCOc1ccc(-c2ccc3ncc4c(c3c2)n(C2CCOCC2)c(=O)n4C)cn1 [AZD0156] (first compound max 1 µM, 7x7, partner max 1 µM): the Bliss excess in test [1] is -0.0576; in [2], 0.0043; in test [3] it was -0.0203; in test [4] it was 0.0059; in [5], -0.0328; in test [6], -0.0172. Besides, the Bliss excess in test [7] is -0.0507; in [8], 0.0072; in [9], -0.056; in test [10], -0.029; in [11] it was -0.0219; in test [12] it was 0.0036. Moreover, the Bliss excess in test [13] is -0.0416; in test [14], -0.0206; in test [15], -0.0547; in [16] it was -0.0327; in [17], -0.0284; in test [18] it was -0.0159. The values for the Bliss excess in test [19] and in [20] were -0.0364 and -0.0432, respectively.
Regarding `CC1(C)CCC(CN2CCN(c3ccc(C(=O)NS(=O)(=O)c4ccc(NCC5CCOCC5)c([N+](=O)[O-])c4)c(Oc4cnc5[nH]ccc5c4)c3)CC2)=C(c2ccc(Cl)cc2)C1` [Venetoclax] + Cn1cnc2c(F)c(Nc3ccc(Br)cc3Cl)c(C(=O)NOCCO)cc21 [Selumetinib] (first compound max 1 µM, 7x7, partner max 3 µM), the Bliss excess in test [1] was -0.0347; in [2] it was -0.0026; in test [3], -0.008; in [4], -0.0418; in [5], 0.0069; in test [6], -0.0263. In addition, the Bliss excess in test [7] was -0.0665; in [8], -0.0367; in test [9], -0.0485; in test [10] it was -0.049; in test [11] it was -0.0157; in test [12] it was 0.0179. For the same compound, the Bliss excess in test [13] is 0.0042; in test [14], -0.0046; in test [15] it was -0.044; in test [16] it was -0.052; in test [17] it was -0.0229; in test [18], -0.0265. The Bliss excess in test [19] was -0.0313; in test [20], -0.0631.
Consider `CC1(C)CCC(CN2CCN(c3ccc(C(=O)NS(=O)(=O)c4ccc(NCC5CCOCC5)c([N+](=O)[O-])c4)c(Oc4cnc5[nH]ccc5c4)c3)CC2)=C(c2ccc(Cl)cc2)C1` [Venetoclax] + C1CN(CCC1(C(=O)N[C@@H](CCO)C2=CC=C(C=C2)Cl)N)C3=NC=NC4=C3C=CN4 [Capivasertib] (first compound max 1 µM, 7x7, partner max 3 µM), for which the Bliss excess in [1] is -0.0428; in test [2], 0.0213; in [3], 0.0046; in [4], -0.0266; in [5], -0.0342; in test [6], -0.0821. The Bliss excess was -0.0558 in test [7]; -0.0389 in test [8]; -0.0841 in [9]; -0.0418 in test [10]; -0.0498 in test [11]; 0.104 in test [12]. Moreover, the Bliss excess in test [13] was -0.0411; in test [14] it was -0.0643; in [15], -0.0377; in [16], -0.0663; in [17] it was -0.038; in test [18] it was -0.0808. The Bliss excess in test [19] is -0.0102; in [20], -0.0688.
For `Cc1c2c(nn1C)CSCc1cc(n(C)n1)CSc1cc(c3ccccc3c1)OCCCc1c(C(=O)O)n(C)c3c-2c(Cl)ccc13` [AZD5991] + C[C@@H]1COCCN1C2=NC(=NC(=C2)C3(CC3)[S@](=N)(=O)C)C4=C5C=CNC5=NC=C4 [AZD6738] (first compound max 1 µM, 7x7, partner max 10 µM), the Bliss excess was -0.0098 in test [1]; 0.0406 in test [2]; 0.0152 in [3]; 0.0789 in test [4]; -0.012 in [5]; -0.0426 in test [6]. Besides, the Bliss excess in [7] is 0.0282; in test [8], 0.0424; in [9] it was -0.0301; in test [10], -0.0103; in test [11], -0.0056; in test [12], -0.0398. Further, the Bliss excess stood at 0.0224 in test [13]; 0.0581 in [14]; 0.0443 in [15]; 0.0552 in test [16]; 0.0229 in test [17]; 0.0331 in test [18]. Further, the Bliss excess in test [19] was -0.0023; in test [20], 0.0472.
